Reference: US20250222045A1, “BIFIDOBACTERIUM LONGUM SUBSP. INFANTIS, MICROBIAL AGENT AND USE THEREOF” (GUANGZHOU JIYAN COSMETICS TECHNOLOGY CO., LTD., priority 2024, published 2025)

Key:
[1] = test system: MMP-1; experiment: UVA-irradiated fibroblasts, special dosing (UVA continuous irradiation): MMP1 ELISA; type: cell-based; settings: Filtrate 1%, Lysate 0.5%, Filtrate + lysate 0.3125%, Pro-xylane 10 mg/mL, Edelweiss 0.625%
Experimental: (§1) Cell inoculation: After resuscitation of cells, when a plating rate reached about 60%, the cells were inoculated in 6-well plates, and incubated overnight in the CO2 incubator (37° C., 5% CO2).
Dosing: When the plating rate of the cells in the 6-well plates reached about 50%˜60%, UVA irradiation of 30 J/cm^2 was performed on groups with UVA irradiation, and after the irradiation was finished, dosing was performed for the groups respectively, with each group in triplicate. The blank control group and the negative control group were added with 2 mL of the culture solution per well, the positive control group was added with 2 mL of the TGF-β1-containing culture solution per well, and the sample group was added with 2 mL of the test sample-containing culture solution at a corresponding concentration per well. After the dosing was completed, the 6-well plates were cultured in the CO2 incubator (37° C., 5% CO2) […] for 24 h. The above operations were repeated for 3 times. […]
(§2) Statistical analysis of results: GraphPad Prism Program software was applied for plotting, and results were expressed as Mean±SD. Comparison between the groups was statistically analyzed using t-test. […]

[2] = test system: NF-κB gene; experiment: UVA-irradiated fibroblasts, special dosing: NF-κB PCR; type: cell-based; settings: Filtrate 0.1%, Lysate 0.5%, Filtrate + lysate 0.3125%, Pro-xylane 10 mg/mL
Experimental: as §1
(§3) Dosing: When the plating rate of the cells in the 6-well plates reached about 50%˜60%, UVA irradiation of 30 J/cm^2 was performed on groups with UVA irradiation, and after the irradiation was finished, dosing was performed for the groups respectively, with each group in triplicate. […]
(§4) Detection of gene expression: After the incubation was finished, PBS cleaning was performed twice with 1 mL/well, each well was added with 1 mL of RNAiso Plus, to pipet and lyse the cells, after which samples were collected. RNA was extracted and subjected to reverse transcription to cDNA to undergo fluorescence quantitative PCR detection, and result was calculated by the […] method.
as §2

[3] = test system: p21 gene; experiment: UVA-irradiated fibroblasts, special dosing: p21 PCR; type: cell-based; settings: 10 mg/mL
Experimental: as §1, §3, §4, §2

[4] = test system: p16 gene; experiment: UVA-irradiated fibroblasts, special dosing: p16 PCR; type: cell-based; settings: 10 mg/mL
Experimental: as §1, §3, §4, §2

[5] = test system: PGE2; experiment: Keratinocyte-based inflammatory factor test (UVB), PGE2 ELISA; type: cell-based; settings: keratinocytes, dosed 24 h, UVB 300 mJ/cm^2, 24 h, BC 165.31, NC 492.42, dexamethasone 0.01%, Filtrate 0.3125%, Lysate 1%, Filtrate + lysate 0.0781%, Centella asiatica 0.625 mg/mL
Experimental: (§5) Cell inoculation: After resuscitation of cells, when a plating rate reached about 60%, the cells were inoculated in 6-well plates, and incubated overnight in a CO2 incubator (37° C., 5% CO2).
(§6) Dosing: According to test groups in TABLE 19, when the plating rate of the cells in the 6-well plates reached about 30%˜50%, dosing was performed for the groups respectively, with each group in triplicate. The blank control group and the negative control group were added with 2 mL of a culture solution per well, the positive control group was added with 2 mL of a dexamethasone-containing culture solution per well, and the sample group was added with 2 mL of a test sample-containing culture solution at corresponding concentration per well. After the dosing was completed, the 6-well plates were cultured in the CO2 incubator (37° C., 5% CO2) for 24 h.
UVB irradiation: after the cells are cleaned in PBS, according to the test groups, remaining groups other than the blank control group were all subjected to UVB irradiation, with an irradiation dosage of 300 mJ/cm^2. […]
(§7) Statistical analysis of results: GraphPad Prism was applied for plotting, and results were expressed as Mean±SD. Comparison between the groups was statistically analyzed using t-test. […]

[6] = test system: IL-6; experiment: Macrophage-based inflammatory factor test (LPS), IL-6 ELISA; type: cell-based; settings: macrophages, dosed 2 h, then LPS 22 h, BC 0.50, NC 2224.08, dexamethasone 0.01%, Filtrate 0.5%, CLR bifida ferment lysate 1%
Experimental: (§8) <1> Formulation of working solution of positive control group (dexamethason): 2 μL of 10% mother liquor was sucked and dissolved in 2 mL of the culture solution to formulate 0.01% dexamethasone.
(§9) <2> Formulation of 1 μg/mL LPS-containing working solution: 2 mg/mL LPS stock solution was diluted to 1 μg/mL with the test-substance working solution remaining, negative control working solution and positive control working solution, respectively, after the dosing.
(§10) <1> Cell inoculation: the cells were inoculated in 6-well plates at an inoculation density of 2.2×10^5 per well, 2 mL of a cell suspension was added to each well, the inoculated cell culture plates continued to be cultured in the incubator for 24 h (5% CO2, 37° C.).
(§11) <2> Original cell culture solution in the wells was sucked out and discarded. The sample group was added with 1.8 mL of the test substance-containing culture solution at a corresponding concentration per well; the negative control group was added with 1.8 mL of a solvent control culture solution per well; the positive control group was added with 1.8 mL of a positive control culture solution per well; and the blank control group was added with 1.8 mL of a normal culture solution per well.
(§12) <3> After the dosing was completed, the 6-well plates were cultured in a cell incubator (5% CO2, 37° C.) for 2 h. […]

[7] = test system: IL-1β; experiment: Macrophage-based inflammatory factor test (LPS), IL-1β ELISA; type: cell-based; settings: macrophages, dosed 2 h, then LPS 22 h, BC 2.83, NC 76.40, dexamethasone 0.01%, Filtrate 0.5%, CLR bifida ferment lysate 1%
Experimental: as §8, §9, §10, §11, §12

[8] = test system: Keratinocyte; experiment: Cell scratch test, keratinocyte cell mobility; type: cell-based; settings: Filtrate 0.3125%, Lysate 0.5%, Filtrate + lysate 0.0781%, Madecassoside 0.625 mg/mL, B5 1.25 mg/mL
Source text: Cell migration capability is an important capability of repairing after tissue damage. After the tissue damage, the body will initiate repair of a damaged part, including enhancement of longitudinal cell proliferation capability and lateral crawling and migration of cells in surrounding parts of the damage to the damaged part. Cells cover the damaged part by crawling and migration.
as §5
as §6, with “9,” for “19,”, “70%˜80%,” for “30%˜50%,”, “was” for “and the negative control group were”, “an EGF-containing” for “a dexamethasone-containing”, “continued to be” for “were”, “h. […]” for “h.”
Statistical analysis of results: GraphPad Prism was applied for plotting, and results were expressed as Mean±sD. Comparison between the groups was statistically analyzed using t-test. […]

[9] = test system: Claudin-1 gene; experiment: Keratinocyte gene expression PCR: Claudin-1; type: cell-based, human; settings: keratinocytes (HaCaT), 24 h, 2^−ΔΔCT, BC=1.00; PC VE 0.05%, Filtrate 0.3125%, Lysate 0.5%, Filtrate + lysate 0.0781%, Madecassoside 0.625 mg/mL, CLR lactic acid bacteria 0.5%
Experimental: Cell inoculation: After resuscitation of the cells, when the plating rate reached about 60%, the cells were inoculated in the 6-well plates, and incubated overnight in the CO2 incubator (37° C., 5% CO2).
Dosing: According to test groups in TABLE 11 to TABLE 17, when the plating rate of the cells in the 6-well plates reached about 40%˜60%, dosing was performed for the groups respectively, with each group in triplicate. The blank control group was added with 2 mL of the culture solution per well, the positive control group was added with 2 mL of a VE-containing culture solution per well, and the sample group was added with 2 mL of the test sample-containing culture solution at a corresponding concentration per well. After the dosing was completed, the 6-well plates were cultured in the CO2 incubator (37° C., 5% CO2) for 24 h. […]
Detection of gene expression: RNA was extracted and subjected to reverse transcription to cDNA to undergo fluorescence quantitative PCR detection, and result was calculated by a 2^−ΔΔCT method.
as §7

[10] = test system: 3D epidermal skin model (EpiKutis®); experiment: SLS-stimulated 3D epidermal skin model (EpiKutis), tissue morphology H&E; type: cell-based; settings: 0.1% SLS 30 min, then 24 h, filtrate 5%, lysate 5%, combination 5%, madecassoside 0.625 mg/mL, PC WY14643, FIG. 19
Source text: Tissue morphology: Tissue morphology is microscopic physiological structure analysis of tissues after HE staining. Through the tissue morphology of the model, changes in the skin barrier under different treatment conditions can be seen, for example, after SLS damage, the skin barrier becomes loose, thickness of a living cell layer decreases, and such damage can be ameliorated after treatment with active substances.
1) Formulation of 0.1% SLS working solution: 0.006 g of SLS was weighed and dissolved in 6 mL of a PBS solution, filtered by 0.22 μm, and formulated into the 0.1% SLS working solution for later use.
2) Formulation of working solution of positive control group (50 μM WY14643): 10 μL of 30 mM WY14643 mother liquor was sucked and dissolved in 6 mL of the culture solution to be formulated into 50 μM WY14643. […]
The models for detection of tissue morphology were fixed using 4% paraformaldehyde. After 24 h of fixation, H&E staining detection was performed, photographs were taken under a microscope and observed, and pictures were collected and analyzed.
as §7

In the case of `CC(O)C[C@@H]1OC[C@@H](O)[C@H](O)[C@H]1O` (some centres unmarked) [Pro-xylane], the “MMP1 Down-regulation Rate (vs NC)” value [1] is reported as 17.94%, the “MMP1 Mean Concentration” value ([1]; fibroblasts, UVA 30 J/cm^2 then dosing 24 h, repeated 3 times, ELISA, BC 359379.29, NC 1075513.35, PC TGFβ1 100 ng/mL) is reported as 882584.62 pg/mL and the “NF-κB gene expression, Inhibition Rate (vs NC)” value [2] is reported as 65.13%. The “NF-κB gene expression, Mean” value ([2]; fibroblasts, UVA 30 J/cm^2 then dosing 24 h, repeated 3 times, BC 1.00, NC 1.52, PC TGFβ1 100 ng/mL) was 0.53, the “p21 gene expression, Mean” value [3] was 1.88 and the “p16 Down-regulation Rate (vs NC)” value [4] was 35.37%. The “p16 gene expression, Mean” value [4] was 1.06.

For `C[C@@H]1C[C@H]2[C@@H]3CCC4=CC(=O)C=C[C@]4(C)[C@@]3(F)[C@@H](O)C[C@]2(C)[C@@]1(O)C(=O)CO` [dexamethasone], the “PGE2 Mean Concentration” value [5] was 159.23 pg/mL, the “IL-6 Mean Concentration” value [6] was 193.04 pg/mL and the “IL-1β Mean Concentration” value [7] was 8.51 pg/mL.

In the case of Madecassoside, the “Relative Mobility Mean” value ([8]; keratinocytes, dosed 24 h, 24 h after scratching, BC=1.00, PC EGF 1 ng/mL) is reported as 1.02, the “Relative mobility, Increase Rate” value ([8]; vs BC) is reported as 2.00% and the “Claudin-1 gene expression, Mean” value [9] is reported as 0.96. For the same compound, the “Tissue morphology (H&E) compared with the NC group” value [10] was “the phenomenon of living cell damage is obviously ameliorated”.
